Active and inactive are the calls of the source. No cut-off for these calls is given here.
What was measured:
CCRF-CEM = assay: Antiproliferative activity against human CEM cells assessed as inhibition of cell proliferation incubated for 3 days by Coulter counter based assay; type: functional; conditions: 72 h
HeLa = assay: Antiproliferative activity against human HeLa cells assessed as inhibition of cell proliferation incubated for 4 days by Coulter counter based assay; type: functional; conditions: 96 h
FM3A = assay: Antiproliferative activity against mouse FM3A cells assessed as inhibition of cell proliferation incubated for 2 days by Coulter counter based assay; type: functional; conditions: 48 h
L1210 = assay: Antiproliferative activity against mouse L1210 cells assessed as inhibition of cell proliferation incubated for 2 days by Coulter counter based assay; type: functional; conditions: L1210, 48 h
U-937 [1] = assay: Induction of apoptosis in human U937 cells over-expressing human Bcl-2 assessed as induction of morphological changes by inverted phase contrast microscopy; type: functional, cell-based
HL-60 [2] = assay: Induction of apoptosis in human HL60 cells assessed as cleavage of pro-caspase-8 at 3 uM incubated for 8 hrs by immunoblot method; type: functional, cell-based
HL-60 [3] = assay: Induction of apoptosis in human HL60 cells assessed as cleavage of pro-caspase-3 at 3 uM incubated for 8 hrs by immunoblot method; type: functional, cell-based
U-937 [4] = assay: Induction of apoptosis in human U937 cells assessed as induction of increase in apoptotic bodies at 3 uM incubated for 8 hrs by Hoechst 33258 staining based fluorescent microscopy; type: functional, cell-based
HL-60 [5] = assay: Induction of apoptosis in human HL60 cells assessed as cleavage of pro-caspase-3/7 activity at 3 uM incubated for 8 hrs DEVD-pNA chromogenic substrate proteolytic cleavage assay; type: functional
U-937 [6] = assay: Induction of apoptosis in human U937 cells over-expressing human Bcl-2 assessed as increase in cytochrome c release into cytosol at 3 uM incubated for 8 hrs by immunoblot method; type: functional, cell-based
U-937 [7] = assay: Induction of apoptosis in human U937 cells assessed as induction of morphological changes by inverted phase contrast microscopy; type: functional, cell-based
HL-60 [8] = assay: Induction of apoptosis in human HL60 cells assessed as hypodiploid cells level at 1 and 10 uM incubated for 24 hrs by propidium iodide staining based flow cytometry; type: functional, cell-based
HL-60 [9] = assay: Induction of apoptosis in human HL60 cells assessed as hypodiploid cells level at 1 uM incubated for 24 hrs by propidium iodide staining based flow cytometry (reference value: 2.6 +/- 0.6%); type: functional
U-937 [10] = assay: Induction of apoptosis in human U937 cells assessed as cleavage of pro-caspase-3 at 3 uM incubated for 8 hrs by immunoblot method; type: functional, cell-based
U-937 [11] = assay: Induction of apoptosis in human U937 cells over-expressing human Bcl-2 assessed as induction of cell shrinkage at 3 uM incubated for 8 hrs by Hoechst 33258 staining based fluorescent microscopy; type: functional
HL-60 [12] = assay: Induction of apoptosis in human HL60 cells assessed as increase in cytochrome c release into cytosol at 3 uM incubated for 8 hrs by immunoblot method; type: functional, cell-based
U-937 [13] = assay: Cytotoxicity against human U937 cells over-expressing human Bcl-2 assessed as reduction in cell viability incubated for 72 hrs by MTT assay; type: functional, cell-based
U-937 [14] = assay: Induction of apoptosis in human U937 cells over-expressing human Bcl-2 assessed as induction of increase in apoptotic bodies at 3 uM incubated for 8 hrs by Hoechst 33258 staining based fluorescent microscopy; type: functional, cell-based
HL-60 [15] = assay: Induction of apoptosis in human HL60 cells assessed as induction of morphological changes by inverted phase contrast microscopy; type: functional, cell-based
U-937 [16] = assay: Induction of apoptosis in human U937 cells assessed as induction of increase in condensed and fragmented chromatin at 3 uM incubated for 8 hrs by Hoechst 33258 staining based fluorescent microscopy; type: functional, cell-based
HL-60 [17] = assay: Induction of DNA laddering in human HL60 cells at 3 to 10 uM incubated for 24 hrs by ethidium bromide staining based gel electrophoresis method; type: functional, cell-based
U-937 [18] = assay: Induction of apoptosis in human U937 cells assessed as cleavage of pro-caspase-8 at 3 uM incubated for 8 hrs by immunoblot method; type: functional, cell-based
U-937 [19] = assay: Induction of apoptosis in human U937 cells assessed as induction of cell shrinkage at 3 uM incubated for 8 hrs by Hoechst 33258 staining based fluorescent microscopy; type: functional
U-937 [20] = assay: Induction of apoptosis in human U937 cells assessed as increase in cytochrome c release into cytosol at 3 uM incubated for 8 hrs by immunoblot method; type: functional, cell-based
HL-60 [21] = assay: Induction of apoptosis in human HL60 cells assessed as cleavage of pro-caspase-9 at 3 uM incubated for 8 hrs by immunoblot method; type: functional, cell-based
U-937 [22] = assay: Cytotoxicity against human U937 cells assessed as reduction in cell viability incubated for 72 hrs by MTT assay; type: functional, cell-based
SK-MEL-1 = assay: Cytotoxicity against human SK-MEL-1 cells assessed as reduction in cell viability incubated for 72 hrs by MTT assay; type: functional, cell-based
U-937 [23] = assay: Induction of apoptosis in human U937 cells assessed as cleavage of pro-caspase-9 at 3 uM incubated for 8 hrs by immunoblot method; type: functional, cell-based
HL-60 [24] = assay: Induction of apoptosis in human HL60 cells assessed as hypodiploid cells level at 1 uM incubated for 24 hrs by propidium iodide staining based flow cytometry relative to untreated control; type: functional
HL-60 [25] = assay: Cytotoxicity against human HL60 cells assessed as reduction in cell viability incubated for 72 hrs by MTT assay; type: functional, cell-based
U-937 [26] = assay: Induction of apoptosis in human U937 cells over-expressing human Bcl-2 assessed as induction of increase in condensed and fragmented chromatin at 3 uM incubated for 8 hrs by Hoechst 33258 staining based fluorescent microscopy; type: functional, cell-based

`Nc1cccc(-c2cn3c(-c4ccc(Cl)cc4)csc3n2)c1` gave an IC50 (CCRF-CEM) of 21 µM, an IC50 (HeLa) of 17 µM and an IC50 (FM3A) of 11 µM. The IC50 (L1210) was 22 µM.

`Nc1cccc(-c2cn3nc(Cc4ccccc4)sc3n2)c1` was tested, and the IC50 (CCRF-CEM) was 37 µM, the IC50 (HeLa) was 24 µM and the IC50 (FM3A) was 4.7 µM. It also gave an IC50 (L1210) of 7.4 µM.

Compound `Nc1cccc(-c2cn3nc(-c4ccccc4)sc3n2)c1` has an IC50 (CCRF-CEM) of 33 µM, an IC50 (HeLa) of 26 µM and an IC50 (FM3A) of 14 µM. For the same compound, the IC50 (L1210) was 32 µM.

`C=C(Br)C(=O)Nc1cccc(-c2cn3nc(Cc4ccccc4)sc3n2)c1` gave an IC50 (CCRF-CEM) of 4.2 µM, an IC50 (HeLa) of 4.5 µM and an IC50 (FM3A) of 3 µM. For the same compound, the IC50 (L1210) was 3 µM.

With `Nc1cccc(-c2cn3nc(CCc4ccccc4)sc3n2)c1` the IC50 (CCRF-CEM) was 30 µM, the IC50 (HeLa) was 242 µM and the IC50 (FM3A) was 29 µM. For the same compound, the IC50 (L1210) was 31 µM.

With `Nc1cccc(-c2cn3nc(-c4cccs4)sc3n2)c1` the IC50 (CCRF-CEM) was greater than 250 µM, the IC50 (HeLa) was greater than 250 µM and the IC50 (FM3A) was greater than 250 µM. The IC50 (L1210) was greater than 250 µM.

`COc1cccc(Cc2nn3cc(-c4cccc(N)c4)nc3s2)c1` was tested, and the IC50 (CCRF-CEM) was 40 µM, the IC50 (HeLa) was 24 µM and the IC50 (FM3A) was 10 µM. For the same compound, the IC50 (L1210) was 21 µM.

For `COc1ccc(Cc2nn3cc(-c4cccc(N)c4)nc3s2)cc1`, the IC50 (CCRF-CEM) was no less than 250 µM, the IC50 (HeLa) was 191 µM and the IC50 (FM3A) was 100 µM. For the same compound, the IC50 (L1210) was 227 µM.

With `C=C(Br)C(=O)Nc1cccc(-c2cn3nc(Cc4cccc(OC)c4)sc3n2)c1` the IC50 (CCRF-CEM) was 3.1 µM, the IC50 (HeLa) was 2.5 µM and the IC50 (FM3A) was 1.1 µM. For the same compound, the IC50 (L1210) was 2 µM.

`C=C(Br)C(=O)Nc1cccc(-c2cn3nc(-c4cccc(OC)c4)sc3n2)c1` gave an IC50 (CCRF-CEM) of 1.2 µM, an IC50 (HeLa) of 1.1 µM and an IC50 (FM3A) of 0.5 µM. For the same compound, the IC50 (L1210) was 0.58 µM.

`C=C(Br)C(=O)Nc1cccc(-c2cn3nc(-c4ccc(CC)cc4)sc3n2)c1` showed an IC50 (CCRF-CEM) of 3.4 µM, an IC50 (HeLa) of 3.2 µM and an IC50 (FM3A) of 3.3 µM. The IC50 (L1210) was 2.2 µM.

In the case of `C=C(Br)C(=O)Nc1cccc(-c2cn3nc(-c4ccc(Cl)cc4)sc3n2)c1`, the IC50 (CCRF-CEM) is reported as 3.2 µM, the IC50 (HeLa) is reported as 3 µM and the IC50 (FM3A) is reported as 2 µM. It also gave an IC50 (L1210) of 1.4 µM.

Work on `CCOc1ccc(-c2nn3cc(-c4cccc(N)c4)nc3s2)cc1` yielded an IC50 (CCRF-CEM) greater than 250 µM, an IC50 (HeLa) of 94 µM and an IC50 (FM3A) of no less than 250 µM. The IC50 (L1210) was 155 µM.

`CCc1ccc(-c2nn3cc(-c4cccc(N)c4)nc3s2)cc1` was tested, and the IC50 (CCRF-CEM) was 22 µM, the IC50 (HeLa) was 8.1 µM and the IC50 (FM3A) was 8.2 µM. It also gave an IC50 (L1210) of 6 µM.

With `Cc1ccc(-c2nn3cc(-c4cccc(N)c4)nc3s2)cc1` the IC50 (CCRF-CEM) was 5.9 µM, the IC50 (HeLa) was 8.9 µM and the IC50 (FM3A) was 5.8 µM. It also gave an IC50 (L1210) of 4.8 µM.

With `C=C(Br)C(=O)Nc1cccc(-c2cn3nc(-c4ccc(OC)c(OC)c4)sc3n2)c1` the Activity (U-937 [1]) was “Active”, the IC50 (CCRF-CEM) was 0.38 µM and the Activity (HL-60 [2]) was “Active”. For the same compound, the Activity (HL-60 [3]) was “Active”, the Activity (U-937 [4]) was “Active” and the “fold change (FC)” value (HL-60 [5]) was 3.2. The Activity (U-937 [6]) was “Active”, the Activity (U-937 [7]) was “Active” and the Activity (HL-60 [8]) was “Dose-dependent effect”. The Activity (HL-60 [9]) was 16%, the Activity (U-937 [10]) was “Active” and the IC50 (HeLa) was 0.61 µM. The Activity (U-937 [11]) was “Active”, the Activity (HL-60 [12]) was “Active” and the Activity (U-937 [13]) was “Dose-dependent effect”. The IC50 (U-937 [13]; U-937, 72 h) was 0.21 µM, the Activity (U-937 [14]) was “Active” and the Activity (HL-60 [15]) was “Active”. The Activity (U-937 [16]) was “Active”, the Activity (HL-60 [17]) was “inactive” and the Activity (U-937 [18]) was “Active”. For the same compound, the Activity (U-937 [19]) was “Active”, the Activity (U-937 [20]) was “Active” and the Activity (HL-60 [21]) was “Active”. The Activity (U-937 [22]) was “Dose-dependent effect”, the IC50 (U-937 [22]; U-937, 72 h) was 0.27 µM and the IC50 (FM3A) was 0.11 µM. The IC50 (L1210) was 0.042 µM, the Activity (SK-MEL-1) was “Dose-dependent effect” and the IC50 (SK-MEL-1; SK-MEL-1, 72 h) was 0.77 µM. For the same compound, the Activity (U-937 [23]) was “Active”, the “fold change (FC)” value (HL-60 [24]) was 6 and the Activity (HL-60 [25]) was “Dose-dependent effect”. The IC50 (HL-60 [25]; HL-60, 72 h) was 0.21 µM and the Activity (U-937 [26]) was “Active”.

From ChEMBL document CHEMBL3608308, “Design, synthesis and antiproliferative activity of novel heterobivalent hybrids based on imidazo[2,1-b][1,3,4]thiadiazole and imidazo[2,1-b][1,3]thiazole scaffolds” (Eur J Med Chem, 2015)
